# Measurements as given in patent US10646496B2, “Joint application of statin and adrenocortical hormone for treating chronic subdural hematoma” (priority 2016, dated 2020).
# Values joined by “and” are separate entries in the source; they are usually repeats but may differ in a detail not shown here. Equal values may be shown once. Read-outs that look alike come from different tables or passages of the source.
# Assays:
# [1] = test system: VEGF, TGF-β, MMP-9 and Ang-1/2; assay: Rat subdural hematoma model: factor expression in hematoma capsule/cavity (real-time PCR, ELISA); assay type: in vivo
# Description: In FIG. 1 to FIG. 9, “#” denotes a statistically significant difference in the small-dose group and the large-dose group as compared with the control group; and “*” denotes a statistically significant difference between the small-dose group and the large-dose group.
# [2] = test system: VEGF, TGF-β, MMP-9 and Ang-1/2; settings: small dose of atorvastatin, recent animal experiments; cited from earlier work
# [3] = test system: chronic subdural hematoma; settings: for Hematoma amount in the fourth week, average value: treatment for one month, conservatively successful patients
# [4] = large-dose group 8 mg/kg/day oral, 2 days
# [5] = large-dose group 8 mg/kg/day, 7 days after the operation
# [6] = small-dose group 3 mg/kg/day oral, 2 days
# [7] = small-dose group 3 mg/kg/day, 7 days after the operation, vs control and large-dose group
# [8] = large-dose 5 mg/kg/day, 28 rats
# [9] = small-dose 3 mg/kg/day, 30 rats
smiles,measurement,setting,value
CC(C)c1c(C(=O)Nc2ccccc2)c(-c2ccccc2)c(-c2ccc(F)cc2)n1CC[C@@H](O)C[C@@H](O)CC(=O)O [atorvastatin],expression of MMP-9,[1]; [4],significantly higher
same,expression of TGFβ,[1]; [4],significantly higher
same,expression of VEGF,[1]; [4],significantly higher
same,expression of Ang2,[1]; [5],high expressions
same,expression of MMP-9,[1]; [5],high expressions
same,expression of TGF-β,[1]; [5],high expressions
same,expression of VEGF,[1]; [5],high expressions
same,mRNA expression of hematoma capsule Ang1,[1]; [6],significantly higher
same,mRNA expression of hematoma capsule VEGF,[1]; [6],significantly higher
same,Ang1,[1]; [7],significantly higher
same,expression level of MMP-9,[1]; [7],significantly lower
same,expression level of VEGF,[1]; [7],significantly lower
same,Injury infection,subcutaneous hematoma; [8],4
same,Rats died in the treatment,subcutaneous hematoma; [8],7
same,death rate,subcutaneous hematoma; large-dose group compared with small-dose atorvastatin group,significantly improved
same,hormone-caused complications,"subcutaneous hematoma; rat, in vivo",significantly increased
same,Poor condition,"subcutaneous hematoma; rat, in vivo, 3 mg/kg/day",3
same,Poor condition,"subcutaneous hematoma; rat, in vivo, 5 mg/kg/day",6
same,Injury infection,subcutaneous hematoma; [9],1
same,Rats died in the treatment,subcutaneous hematoma; [9],2
same,local TNF-α and IL-6 gene and protein levels in the hematoma capsule,[2],significantly reduce
same,"Hematoma amount in the fourth week, average value",[3]; atorvastatin alone,28.29 ± 29.47 mL and 28.29 mL
C[C@@H]1C[C@H]2[C@@H]3CCC4=CC(=O)C=C[C@]4(C)[C@@]3(F)[C@@H](O)C[C@]2(C)[C@@]1(O)C(=O)CO [dexamethasone],"Reduced hematoma amount in the fourth week, average value",[3]; small dose dexamethasone alone,24.71 mL
same,"patients with no therapeutic effect, transferred to surgical treatment","[3]; small dose dexamethasone alone, among the 15 patients",5 patients
same,average hematoma absorption rate,"[3]; small dose dexamethasone alone, fourth week / one month after administration",35%
same,Hematoma amount in the fourth week,"[3]; small dose dexamethasone alone, oral, 0.75 mg 3x/day wk 1, 2x/day wk 2-3, 1x/day wk 4, individual patients (15)",40.95 ml and 80.00 ml (2×) and 36.30 ml and 32.73 ml and 96.53 ml and 39.88 ml and 30.25 ml and 35.00 ml and 37.00 ml
same,"Hematoma amount in the fourth week, average value",[3]; small dose dexamethasone alone,50.86 ± 24.52 mL and 50.86 mL
same,Reduced hematoma amount in the fourth week,"[3]; small dose dexamethasone alone, individual patients (15)",20.93 mL and 25.00 mL and 39.64 mL and 23.90 mL and 8.13 mL and 38.43 mL and 24.08 mL and 36.40 mL and 13.60 mL and 17.00 mL
